Experimental findings from patent publication US20260295053A1, “COMPOUNDS FOR DEGRADATION AND INHIBITION OF KRAS (G12D) PROTEIN” (Shenzhen Ionova Life Science Co., Ltd., priority 2023, published 2026) are described below.

T1 sequence (P01116 1-188 isoform P01116-2 G12D): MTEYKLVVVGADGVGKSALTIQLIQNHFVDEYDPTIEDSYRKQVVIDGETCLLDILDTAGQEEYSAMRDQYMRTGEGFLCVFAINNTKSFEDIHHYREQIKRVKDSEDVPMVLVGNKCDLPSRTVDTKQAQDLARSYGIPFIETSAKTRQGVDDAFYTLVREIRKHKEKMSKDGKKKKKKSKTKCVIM

This assay addresses T1, KRAS (G12D) (Homo sapiens, UniProt P01116, G12D).
T1 construct: in-cell western with KRAS G12D antibody after 24 h
In words: KRAS (G12D) cellular degradation assay in AsPC-1 cells. In kind it is cell-based. Conditions: 24 hours, antibody fluorescence (Odyssey CLX), DC50 half-maximal degradation concentration. The protocol:
ASPC-1 and PK-59 cellular assays ASPC-1 (ATCC cat. CRL-1682) and PK-59 (Nanjing Cobioer, Cat. No. CBP61184) were used in KRAS cellular degradation, pERK inhibition and proliferation assays. The two cell lines were maintained following vendor's instructions. For monitoring KRAS (G12D) cellular degradation and pERK biomarker inhibition, cells were seeded into a 96-well plate with 22,000 and 16,000 cells/well for assays in ASPC-1 and PK-59, respectively. Cells were incubated at 37° C. with 5% CO2 and cell density was monitored until ^~90% confluency was reached. Compounds were serially diluted at a 1:3 ratio and dispensed into each well at final concentrations ranging from […] to 1.5 nM. After incubation for 24 hours, the culture media were removed and the cells were subjected to fixation, permeabilization and blocking (Intercept blocking buffer, Li-cor). For KRAS (G12D) degradation, the cells were treated with primary antibody (KRAS G12D antibody, Cell Signaling Technologies, Cat. No. CST14429) and for β-actin (β-actin mAb, Beyotime, Cat. No. AF-5001), and followed by secondary antibodies, Anti-rabbit IgG (H+L) (DyLight™ 800 4×PEG Conjugate) or IRDye® 680RD Goat anti-Mouse IgG. For pERK inhibition assay, cells were treated with primary antibodies for pERK (Phospho-p44/42 MAPK (Erk1/2) (Thr202/Tyr204) (D13.14.4E) XP® Rabbit mAb, Cell Signaling Technologies, Cat. No. CST-4370) and β-actin (β-actin mAb, Beyotime, Cat. No. AF-5001), and followed by secondary antibodies, Anti-rabbit IgG (H+L) (DyLight™ 800 4×PEG Conjugate) or IRDye® 680RD Goat anti-Mouse IgG. Fluorescence signals were read on Odyssey CLX instrument. For cell proliferation assays, cells were seeded into a 96-well plate at 3,500 and 800 cells/well for assays in ASPC-1 and PK-59, respectively. Cells were incubated at 37° C. with 5% CO2 for overnight. Compounds were serially diluted at a 1:3 ratio and dispensed into each well at final concentrations ranging from […] to 1.5 nM. After incubation for 6 days, cell viability reagent (CellTiter Glo, Promega, Cat. No. G7573) was added to each well and luminescence was recorded on Molecular Devices Spectramax iD3 instrument. IC50, half-maximal inhibitory concentration for pERK inhibition or cell proliferation, and DC50, half-maximal degradation concentration in KRAS (G12D) cellular degradation were determined by fitting the corresponding dose response curves using GraphPad Prism software.
Wherein “A” means the value <10 nM, “B” means 10 nM<the value <100 nM, “C” means 100 nM<the value <1000 nM, and “D” means the value >1000 nM, in which, the value means the value of DC50 or IC50. NT means not tested.
By DC50 is commonly meant the concentration giving 50% degradation. A low value points to degradation at low concentration. Consider `Cc1ncsc1-c1ccc([C@H](CO)NC(=O)[C@@H]2C[C@@H](O)CN2C(=O)[C@H](C(C)C)n2cc(-c3ccc(COc4c(-c5c(C)c(F)cc6[nH]ncc56)c(C5CC5)cc5c(N6C[C@H]7C[C@@H]6CN7)nc(OC6CCOCC6)nc45)cc3)nn2)cc1` (single isomer, unassigned) [Example 5A], for which the DC50 is < 10 nM. Turning to `Cc1ncsc1-c1ccc([C@H](CO)NC(=O)[C@@H]2C[C@@H](O)CN2C(=O)[C@H](C(C)C)n2cc(-c3ccc(COc4c(-c5c(C)c(F)cc6[nH]ncc56)c(C5CC5)cc5c(N6C[C@H]7C[C@@H]6CN7)nc(OC6CCOCC6)nc45)cc3)nn2)cc1` (single isomer, unassigned) [Example 5B], the DC50 was > 1000 nM. On to `CO[C@@H](C)COc1nc(N2C[C@H]3C[C@@H]2CN3)c2cc(C3CC3)c(-c3c(C)c(F)cc4n[nH]cc34)c(OCc3ccc(-c4cn([C@H](C(=O)N5C[C@H](O)C[C@H]5C(=O)N[C@@H](CO)c5ccc(-c6c(C)noc6C)cc5)C(C)C)nn4)cc3)c2n1` (single isomer, unassigned) [Example 6B], for which the half-maximal degradation concentration (DC50) is > 1000 nM. Consider `CCn1nccc1-c1ccc(CNC(=O)[C@@H]2C[C@@H](O)CN2C(=O)[C@H](C(C)C)n2cc(-c3ccc(COc4c(-c5c(C)c(F)cc6[nH]ncc56)c(C5CC5)cc5c(N6C[C@H]7C[C@@H]6CN7)nc(OC[C@H](C)OC)nc45)cc3)nn2)cc1` (single isomer, unassigned) [Example 7B], for which the DC50 is > 1000 nM. For `CO[C@@H](C)COc1nc(N2C[C@H]3C[C@@H]2CN3)c2cc(C3CC3)c(-c3c(C)c(F)cc4[nH]ncc34)c(OCc3ccc(-c4cn([C@H](C(=O)N5C[C@H](O)C[C@H]5C(=O)NCc5ccc(-c6scnc6C)cc5)C(C)C)nn4)cc3)c2n1` (single isomer, unassigned) [Example 11B], the DC50 was > 1000 nM. To `CO[C@@H](C)COc1nc(N2CC3CCC(C2)N3)c2cc(C3CC3)c(-c3c(C)c(F)cc4[nH]ncc34)c(OCc3ccc(-c4cn([C@H](C(=O)N5C[C@H](O)C[C@H]5C(=O)N[C@@H](CO)c5ccc(-c6scnc6C)cc5)C(C)C)nn4)cc3)c2n1` (single isomer, unassigned) [Example 12B] belongs > 1000 nM; to `CCn1nccc1-c1ccc([C@H](CO)NC(=O)[C@@H]2C[C@@H](O)CN2C(=O)[C@H](C(C)C)n2cc(-c3ccc(COc4c(-c5c(C)c(F)cc6[nH]ncc56)c(C5CC5)cc5c(N6CC7CCC(C6)N7)nc(OC[C@H](C)OC)nc45)cc3)nn2)cc1` (single isomer, unassigned) [Example 13B], > 1000 nM; to `CCn1nccc1-c1ccc([C@H](CO)NC(=O)[C@@H]2C[C@@H](O)CN2C(=O)[C@H](C(C)C)n2cc(-c3ccc(COc4c(-c5c(C)c(F)cc6[nH]ncc56)c(C5CC5)cc5c(N6C[C@H]7C[C@@H]6CN7)nc(OC6CCOCC6)nc45)cc3)nn2)cc1` (single isomer, unassigned) [Example 16B], > 1000 nM.

Turning to `CO[C@@H](C)COc1nc(N(C)[C@H]2CCNC2)c2cc(C3CC3)c(-c3c(C)c(F)c(F)c4[nH]ncc34)c(OCc3ccc(-c4cn([C@H](C(=O)N5C[C@H](O)C[C@H]5C(=O)N[C@H](c5ccc(-c6scnc6C)cc5)C(C)O)C(C)C)nn4)cc3)c2n1` (stereo in doubt) [Example 145, (2S,4R)-1-((2S)-2-(4-(4-(((6-cyclopropyl-7-(6,7-difluoro-5-methyl-1H-indazol-4-yl)-2-((S)-2-methoxypropoxy)-4-(methyl((S)-pyrrolidin-3-yl)amino)quinazolin-8-yl)oxy)methyl)phenyl)-1H-1,2,3-triazol-1-yl)-3-methylbutanoyl)-4-hydroxy-N-((1R,2R)-2-hydroxy-1-(4-(4-methylthiazol-5-yl)phenyl)propyl)pyrrolidine-2-carboxamide], the DC50 was < 10 nM. With `CCn1nccc1-c1ccc([C@H](CO)NC(=O)[C@@H]2C[C@@H](O)CN2C(=O)[C@H](C(C)C)n2cc(-c3ccc(COc4c(-c5c(C)c(F)cc6[nH]ncc56)c(C5CC5)cc5c(N6CCNCCC6C)nc(OC[C@H](C)OC)nc45)cc3)nn2)cc1` (stereo in doubt) [Example 153, (2S,4R)-1-((2S)-2-(4-(4-(((6-cyclopropyl-7-(6-fluoro-5-methyl-1H-indazol-4-yl)-2-((S)-2-methoxypropoxy)-4-((S)-7-methyl-1,4-diazepan-1-yl)quinazolin-8-yl)oxy)methyl)phenyl)-1H-1,2,3-triazol-1-yl)-3-methylbutanoyl)-N—((R)-1-(4-(1-ethyl-1H-pyrazol-5-yl)phenyl)-2-hydroxyethyl)-4-hydroxypyrrolidine-2-carboxamide], the DC50 was 10 to 100 nM. `CCn1nccc1-c1ccc([C@H](CO)NC(=O)[C@@H]2C[C@@H](O)CN2C(=O)[C@H](C(C)C)n2cc(-c3ccc(COc4c(-c5c(C)c(F)cc6[nH]ncc56)c(C5CC5)cc5c(N6CC7COCC(C6)N7)nc(OC[C@H](C)OC)nc45)cc3)nn2)cc1` [Example 37, (2S,4R)-1-((2S)-2-(4-(4-(((4-(3-oxa-7,9-diazabicyclo[3.3.1]nonan-7-yl)-6-cyclopropyl-7-(6-fluoro-5-methyl-1H-indazol-4-yl)-2-((S)-2-methoxypropoxy)quinazolin-8-yl)oxy)methyl)phenyl)-1H-1,2,3-triazol-1-yl)-3-methylbutanoyl)-N—((R)-1-(4-(1-ethyl-1H-pyrazol-5-yl)phenyl)-2-hydroxyethyl)-4-hydroxypyrrolidine-2-carboxamide] displayed a half-maximal degradation concentration (DC50) of 10 to 100 nM. The compound `CCn1nccc1-c1ccc([C@H](CO)NC(=O)[C@@H]2C[C@@H](O)CN2C(=O)[C@H](C(C)C)n2cc(-c3ccc(COc4c(-c5c(C)c(F)cc6[nH]ncc56)c(C5CC5)cc5c(N6CCC[C@](C)(O)C6)nc(OC[C@H](C)OC)nc45)cc3)nn2)cc1` [Example 39, (2S,4R)-1-((2S)-2-(4-(4-(((6-cyclopropyl-7-(6-fluoro-5-methyl-1H-indazol-4-yl)-4-((S)-3-hydroxy-3-methylpiperidin-1-yl)-2-((S)-2-methoxypropoxy)quinazolin-8-yl)oxy)methyl)phenyl)-1H-1,2,3-triazol-1-yl)-3-methylbutanoyl)-N—((R)-1-(4-(1-ethyl-1H-pyrazol-5-yl)phenyl)-2-hydroxyethyl)-4-hydroxypyrrolidine-2-carboxamide] showed a DC50 of 10 to 100 nM. The compound `CCn1nccc1-c1ccc([C@H](CO)NC(=O)[C@@H]2C[C@@H](O)CN2C(=O)[C@H](C(C)C)n2cc(-c3ccc(COc4c(-c5c(C)c(F)c(F)c6[nH]ncc56)c(C5CCC5)cc5c(N6C[C@@H]7C[C@H]6CN7)nc(OC[C@H](C)OC)nc45)cc3)nn2)cc1` [Example 106, (2S,4R)-1-((2S)-2-(4-(4-(((4-((1S,4S)-2,5-diazabicyclo[2.2.1]heptan-2-yl)-6-cyclobutyl-7-(6,7-difluoro-5-methyl-1H-indazol-4-yl)-2-((S)-2-methoxypropoxy)quinazolin-8-yl)oxy)methyl)phenyl)-1H-1,2,3-triazol-1-yl)-3-methylbutanoyl)-N—((R)-1-(4-(1-ethyl-1H-pyrazol-5-yl)phenyl)-2-hydroxyethyl)-4-hydroxypyrrolidine-2-carboxamide] showed a DC50 of 10 to 100 nM. On to `CO[C@@H](C)COc1nc(N2C[C@@H]3C[C@H]2CN3)c2cc(C3CC3)c(-c3c(C)c(F)cc4[nH]ncc34)c(OCc3ccc(-c4cn([C@H](C(=O)N5C[C@H](O)C[C@H]5C(=O)N[C@H](C#Cc5cnccc5Cl)CO)C(C)C)nn4)cc3)c2n1` [Example 108, (2S,4R)-1-((2S)-2-(4-(4-(((4-((1S,4S)-2,5-diazabicyclo[2.2.1]heptan-2-yl)-6-cyclopropyl-7-(6-fluoro-5-methyl-1H-indazol-4-yl)-2-((S)-2-methoxypropoxy)quinazolin-8-yl)oxy)methyl)phenyl)-1H-1,2,3-triazol-1-yl)-3-methylbutanoyl)-N—((R)-4-(4-chloropyridin-3-yl)-1-hydroxybut-3-yn-2-yl)-4-hydroxypyrrolidine-2-carboxamide], for which the DC50 fell in the range of 10 to 100 nM.
